The supplement of paper PMC13380429

Legend:
Details in all cases: 72 h
Caco-2 [1] = assay: cell viability relative to DMSO; higher = less toxic
Calu-3 [2] = assay: as above
HepG2 [3] = assay: as above
U2OS [4] = assay: as above
Vero E6 [5] = assay: as above
Caco-2 [6] = assay: relative viability EC50 (midpoint between 100% and the lowest measured viability); higher = less toxic
Calu-3 [7] = assay: as above
HepG2 [8] = assay: as above
U2OS [9] = assay: as above
Vero E6 [10] = assay: as above
Caco-2 [11] = assay: drug sensitivity score (DSS) for viability; higher = more toxic; extreme values may be limits of the assay
Calu-3 [12] = assay: as above
HepG2 [13] = assay: as above
U2OS [14] = assay: as above
Vero E6 [15] = assay: as above

## FCc1ccc(OCCOc2ccc(Cl)cc2Cl)c(Cl)n1
Caco-2 [1]; 1 nM
  cell viability: 92.7%
Caco-2 [1]; 10 nM
  cell viability: 92.8%
Caco-2 [1]; 100 nM
  cell viability: 107%
Caco-2 [1]; 1000 nM
  cell viability: 90.5%
Caco-2 [1]; 10000 nM
  cell viability: 77%
Calu-3 [2]; 1 nM
  cell viability: 101%
Calu-3 [2]; 10 nM
  cell viability: 101%
Calu-3 [2]; 100 nM
  cell viability: 101%
Calu-3 [2]; 1000 nM
  cell viability: 97.9%
Calu-3 [2]; 10000 nM
  cell viability: 92.4%
HepG2 [3]; 1 nM
  cell viability: 94.8%
HepG2 [3]; 10 nM
  cell viability: 97.1%
HepG2 [3]; 100 nM
  cell viability: 98.9%
HepG2 [3]; 1000 nM
  cell viability: 104%
HepG2 [3]; 10000 nM
  cell viability: 86.3%
U2OS [4]; 1 nM
  cell viability: 100%
U2OS [4]; 10 nM
  cell viability: 96.4%
U2OS [4]; 100 nM
  cell viability: 102%
U2OS [4]; 1000 nM
  cell viability: 94.4%
U2OS [4]; 10000 nM
  cell viability: 92.7%
Vero E6 [5]; 1 nM
  cell viability: 95.2%
Vero E6 [5]; 10 nM
  cell viability: 105%
Vero E6 [5]; 100 nM
  cell viability: 96.6%
Vero E6 [5]; 1000 nM
  cell viability: 103%
Vero E6 [5]; 10000 nM
  cell viability: 103%
Caco-2 [6]
  relative viability EC50: > 10 µM
Calu-3 [7]
  relative viability EC50: > 10 µM
HepG2 [8]
  relative viability EC50: > 10 µM
U2OS [9]
  relative viability EC50: > 10 µM
Vero E6 [10]
  relative viability EC50: > 10 µM
Caco-2 [11]
  drug sensitivity score: 1.9
Calu-3 [12]
  drug sensitivity score: 0
HepG2 [13]
  drug sensitivity score: 0.1
U2OS [14]
  drug sensitivity score: 0
Vero E6 [15]
  drug sensitivity score: 0

## O=C1c2cccnc2OC[C@@H]2CCCN12
Caco-2 [1]; 1 nM
  cell viability: 108%
Caco-2 [1]; 10 nM
  cell viability: 99.6%
Caco-2 [1]; 100 nM
  cell viability: 100%
Caco-2 [1]; 1000 nM
  cell viability: 95.6%
Caco-2 [1]; 10000 nM
  cell viability: 100%
Calu-3 [2]; 1 nM
  cell viability: 103%
Calu-3 [2]; 10 nM
  cell viability: 87.1%
Calu-3 [2]; 100 nM
  cell viability: 98.9%
Calu-3 [2]; 1000 nM
  cell viability: 101%
Calu-3 [2]; 10000 nM
  cell viability: 91.1%
HepG2 [3]; 1 nM
  cell viability: 96.9%
HepG2 [3]; 10 nM
  cell viability: 98.8%
HepG2 [3]; 100 nM
  cell viability: 96.1%
HepG2 [3]; 1000 nM
  cell viability: 102%
HepG2 [3]; 10000 nM
  cell viability: 99.2%
U2OS [4]; 1 nM
  cell viability: 103%
U2OS [4]; 10 nM
  cell viability: 98.6%
U2OS [4]; 100 nM
  cell viability: 95.9%
U2OS [4]; 1000 nM
  cell viability: 97.7%
U2OS [4]; 10000 nM
  cell viability: 96.4%
Vero E6 [5]; 1 nM
  cell viability: 93.8%
Vero E6 [5]; 10 nM
  cell viability: 98.5%
Vero E6 [5]; 100 nM
  cell viability: 90.5%
Vero E6 [5]; 1000 nM
  cell viability: 91%
Vero E6 [5]; 10000 nM
  cell viability: 103%
Caco-2 [6]
  relative viability EC50: > 10 µM
Calu-3 [7]
  relative viability EC50: > 10 µM
HepG2 [8]
  relative viability EC50: > 10 µM
U2OS [9]
  relative viability EC50: > 10 µM
Vero E6 [10]
  relative viability EC50: > 10 µM
Caco-2 [11]
  drug sensitivity score: 0
Calu-3 [12]
  drug sensitivity score: 0
HepG2 [13]
  drug sensitivity score: 0
U2OS [14]
  drug sensitivity score: 0
Vero E6 [15]
  drug sensitivity score: 0

## CC(=C(CCOC(=O)C(C)C)SSC(CCOC(=O)C(C)C)=C(C)N(C=O)Cc1cnc(C)nc1N)N(C=O)Cc1cnc(C)nc1N (stereo in doubt) [sulbutiamine]
Caco-2 [1]; 1 nM
  cell viability: 90.8%
Caco-2 [1]; 10 nM
  cell viability: 105%
Caco-2 [1]; 100 nM
  cell viability: 70.2%
Caco-2 [1]; 1000 nM
  cell viability: 98.5%
Caco-2 [1]; 10000 nM
  cell viability: 81.8%
Calu-3 [2]; 1 nM
  cell viability: 109%
Calu-3 [2]; 10 nM
  cell viability: 111%
Calu-3 [2]; 100 nM
  cell viability: 112%
Calu-3 [2]; 1000 nM
  cell viability: 105%
Calu-3 [2]; 10000 nM
  cell viability: 89.1%
HepG2 [3]; 1 nM
  cell viability: 101%
HepG2 [3]; 10 nM
  cell viability: 84.5%
HepG2 [3]; 100 nM
  cell viability: 112%
HepG2 [3]; 1000 nM
  cell viability: 95.3%
HepG2 [3]; 10000 nM
  cell viability: 97.4%
U2OS [4]; 1 nM
  cell viability: 101%
U2OS [4]; 10 nM
  cell viability: 106%
U2OS [4]; 100 nM
  cell viability: 105%
U2OS [4]; 1000 nM
  cell viability: 101%
U2OS [4]; 10000 nM
  cell viability: 92.8%
Vero E6 [5]; 1 nM
  cell viability: 100%
Vero E6 [5]; 10 nM
  cell viability: 84.3%
Vero E6 [5]; 100 nM
  cell viability: 98.7%
Vero E6 [5]; 1000 nM
  cell viability: 89.2%
Vero E6 [5]; 10000 nM
  cell viability: 95.1%
Calu-3 [7]
  relative viability EC50: > 10 µM
HepG2 [8]
  relative viability EC50: > 10 µM
U2OS [9]
  relative viability EC50: > 10 µM
Vero E6 [10]
  relative viability EC50: > 10 µM
Caco-2 [11]
  drug sensitivity score: 1.2
Calu-3 [12]
  drug sensitivity score: 0
HepG2 [13]
  drug sensitivity score: 0
U2OS [14]
  drug sensitivity score: 0
Vero E6 [15]
  drug sensitivity score: 0

## c1cc(OCCN2CCCCC2)cc(-c2n[nH]c3ccc(-c4nnc[nH]4)cc23)c1 [CC-401]
Caco-2 [1]; 1 nM
  cell viability: 101%
Caco-2 [1]; 10 nM
  cell viability: 95.7%
Caco-2 [1]; 100 nM
  cell viability: 95.5%
Caco-2 [1]; 1000 nM
  cell viability: 97.3%
Caco-2 [1]; 10000 nM
  cell viability: 106%
Calu-3 [2]; 1 nM
  cell viability: 104%
Calu-3 [2]; 10 nM
  cell viability: 89.2%
Calu-3 [2]; 100 nM
  cell viability: 96%
Calu-3 [2]; 1000 nM
  cell viability: 95.2%
Calu-3 [2]; 10000 nM
  cell viability: 122%
HepG2 [3]; 1 nM
  cell viability: 94.5%
HepG2 [3]; 10 nM
  cell viability: 96.7%
HepG2 [3]; 100 nM
  cell viability: 88.4%
HepG2 [3]; 1000 nM
  cell viability: 90.7%
HepG2 [3]; 10000 nM
  cell viability: 61.5%
U2OS [4]; 1 nM
  cell viability: 101%
U2OS [4]; 10 nM
  cell viability: 96.4%
U2OS [4]; 100 nM
  cell viability: 100%
U2OS [4]; 1000 nM
  cell viability: 94.1%
U2OS [4]; 10000 nM
  cell viability: 93.4%
Vero E6 [5]; 1 nM
  cell viability: 101%
Vero E6 [5]; 10 nM
  cell viability: 98%
Vero E6 [5]; 100 nM
  cell viability: 101%
Vero E6 [5]; 1000 nM
  cell viability: 103%
Vero E6 [5]; 10000 nM
  cell viability: 95.2%
Caco-2 [6]
  relative viability EC50: > 10 µM
Calu-3 [7]
  relative viability EC50: > 10 µM
U2OS [9]
  relative viability EC50: > 10 µM
Vero E6 [10]
  relative viability EC50: > 10 µM
Caco-2 [11]
  drug sensitivity score: 0
Calu-3 [12]
  drug sensitivity score: 0
HepG2 [13]
  drug sensitivity score: 2.9
U2OS [14]
  drug sensitivity score: 0
Vero E6 [15]
  drug sensitivity score: 0

## CCOC(=O)CCNc1cc(N2CCc3ccccc3CC2)nc(-c2ccccn2)n1 [GSK-J4]
Caco-2 [1]; 1 nM
  cell viability: 93.2%
Caco-2 [1]; 10 nM
  cell viability: 88.2%
Caco-2 [1]; 100 nM
  cell viability: 104%
Caco-2 [1]; 1000 nM
  cell viability: 70.9%
Caco-2 [1]; 10000 nM
  cell viability: 17.4%
Calu-3 [2]; 1 nM
  cell viability: 103%
Calu-3 [2]; 10 nM
  cell viability: 89.5%
Calu-3 [2]; 100 nM
  cell viability: 96.5%
Calu-3 [2]; 1000 nM
  cell viability: 97.5%
Calu-3 [2]; 10000 nM
  cell viability: 21.2%
HepG2 [3]; 1 nM
  cell viability: 103%
HepG2 [3]; 10 nM
  cell viability: 103%
HepG2 [3]; 100 nM
  cell viability: 97.8%
HepG2 [3]; 1000 nM
  cell viability: 104%
HepG2 [3]; 10000 nM
  cell viability: 33.5%
U2OS [4]; 1 nM
  cell viability: 97.8%
U2OS [4]; 10 nM
  cell viability: 97.6%
U2OS [4]; 100 nM
  cell viability: 99.3%
U2OS [4]; 1000 nM
  cell viability: 94.8%
U2OS [4]; 10000 nM
  cell viability: 5.5%
Vero E6 [5]; 1 nM
  cell viability: 93.9%
Vero E6 [5]; 10 nM
  cell viability: 101%
Vero E6 [5]; 100 nM
  cell viability: 91.7%
Vero E6 [5]; 1000 nM
  cell viability: 96.8%
Vero E6 [5]; 10000 nM
  cell viability: 63.2%
Caco-2 [6]
  relative viability EC50: 1.28 µM
Calu-3 [7]
  relative viability EC50: 2.93 µM
HepG2 [8]
  relative viability EC50: 3.45 µM
U2OS [9]
  relative viability EC50: 2.74 µM
Caco-2 [11]
  drug sensitivity score: 8.6
Calu-3 [12]
  drug sensitivity score: 4.7
HepG2 [13]
  drug sensitivity score: 3.4
U2OS [14]
  drug sensitivity score: 6
Vero E6 [15]
  drug sensitivity score: 2.3

## COc1oc(=O)c2cc(N)ccc2c1Cl [JLK-6]
Caco-2 [1]; 1 nM
  cell viability: 99.2%
Caco-2 [1]; 10 nM
  cell viability: 94.6%
Caco-2 [1]; 100 nM
  cell viability: 96.1%
Caco-2 [1]; 1000 nM
  cell viability: 95.4%
Caco-2 [1]; 10000 nM
  cell viability: 76.6%
Calu-3 [2]; 1 nM
  cell viability: 103%
Calu-3 [2]; 10 nM
  cell viability: 105%
Calu-3 [2]; 100 nM
  cell viability: 106%
Calu-3 [2]; 1000 nM
  cell viability: 94.9%
Calu-3 [2]; 10000 nM
  cell viability: 80.9%
HepG2 [3]; 1 nM
  cell viability: 96.6%
HepG2 [3]; 10 nM
  cell viability: 113%
HepG2 [3]; 100 nM
  cell viability: 103%
HepG2 [3]; 1000 nM
  cell viability: 105%
HepG2 [3]; 10000 nM
  cell viability: 73.1%
U2OS [4]; 1 nM
  cell viability: 99.7%
U2OS [4]; 10 nM
  cell viability: 98.2%
U2OS [4]; 100 nM
  cell viability: 99.1%
U2OS [4]; 1000 nM
  cell viability: 99.4%
U2OS [4]; 10000 nM
  cell viability: 91.7%
Vero E6 [5]; 1 nM
  cell viability: 108%
Vero E6 [5]; 10 nM
  cell viability: 104%
Vero E6 [5]; 100 nM
  cell viability: 100%
Vero E6 [5]; 1000 nM
  cell viability: 104%
Vero E6 [5]; 10000 nM
  cell viability: 93.8%
Caco-2 [6]
  relative viability EC50: > 10 µM
Calu-3 [7]
  relative viability EC50: > 10 µM
U2OS [9]
  relative viability EC50: > 10 µM
Vero E6 [10]
  relative viability EC50: > 10 µM
Caco-2 [11]
  drug sensitivity score: 1.5
Calu-3 [12]
  drug sensitivity score: 1.1
HepG2 [13]
  drug sensitivity score: 0.8
U2OS [14]
  drug sensitivity score: 0
Vero E6 [15]
  drug sensitivity score: 0
